Earlier results on 1 molecule are cited in patent US20150157610A1, “PHARMACEUTICAL COMPOSITION FOR TREATING INFLAMMATORY DISEASE” (OSAKA UNIVERSITY, priority 2012, published 2015).

The series has as its system fulminant myocarditis. The note with it: experimental, Non Patent Literature 2 and 3.

Structures are written as SMILES.

Turning to `CCCCCCCCc1ccc(CCC(N)(CO)CO)cc1` [FTY720], the “efficacy against fulminant myocarditis” value is given as “experimentally effective”.
